Laboratory results reported in patent US20240043473A1, “NOOTROPIC PEPTIDES FOR TREATING LYSOSOMAL STORAGE DISEASES” (Phoenix Nest Inc., priority 2021, published 2024).
Entries after “also recorded” stand apart in the source; their conditions may differ. No end group written: not given here.

Columns and labels:
[1] = test system: CA1 pyramidal neurons in acute hippocampal slices from Hgsnat^Geo mice; assay: Miniature inhibitory postsynaptic currents (mIPSC), whole cell voltage clamp in acute hippocampal slices; type: cell-based, mouse; conditions: 10 μM bath application, P14-20
Experimental: Method: Whole cell voltage clamp electrophysiology recordings (miniature synaptic currents) were conducted on CA1 pyramidal neurons in acute hippocampal slices.
Acute hippocampal slices were prepared as follows. Briefly, animals were anaesthetized deeply with isoflurane and decapitated. The brain was dissected carefully and transferred rapidly into an ice-cold (0-4° C.) solution containing the following (in mM): 250 sucrose, 2 KCl, 1.25 NaH2PO4, 26 NaHCO3, 7 MgSO4, 0.5 CaCl2 and 10 glucose, pH 7.4. […] Whole-cell patch-clamp recordings were obtained from single cells in voltage- or current-clamp mode and only 1 cell per slice was recorded to enable post-hoc identification and immunohistochemical processing. […]
After obtaining whole cell configuration, passive membrane properties were monitored for 5 min and current clamp recordings were done to measure action potential characteristics. […] Cells were voltage clamped at −70 mV for mEPSCs recording and then held at 0 mV (calculated from the reversal potential of Cl) for mIPSCs recording. […] Both mEPSCs and mIPSCs were recorded for 7 min and a running template on a stable baseline (minimum of 30 events) was used for the analysis of miniature events on MiniAnalysis. […]

[2] = test system: Hgsnat-Geo and Hgsnat^P304L MPS IIIC mice; assay: Novel Object Recognition test; type: in vivo, mouse; conditions: single dose 17 hours before the test
[3] = test system: Hgsnat^P304L MPS IIIC mice; assay: Y-Maze test; type: in vivo, mouse; conditions: chronic daily intranasal 50 μg/kg BW from 3 weeks
Experimental: The spontaneous alternation behavior, spatial working memory and exploratory activity of mice were evaluated using a white Y-maze as follows. The maze consisted of three identical white Plexiglas arms (40×10×20 cm, 120° apart) under dim lighting conditions. Each mouse was placed at the end of one arm, facing the center, and allowed to explore the maze for 8 min. All experiments were performed at the same time of the day and by the same investigator to avoid circadian and handling bias. Sessions were video-recorded and arm entries were scored by a trained observer, unaware of the mouse genotype or treatment. Successful alternation was defined as consecutive entries into a new arm before returning to the two previously visited arms.
Alternation was calculated as: [number of alternations/total number of arm entries−2]×100.
Starting from 3 weeks of age, WT C57B16 and homozygous Hgsnat^P304L male and female mice were randomly divided in treatment and control groups (6-13 mice/sex/genotype/treatment; see Table I). The control group was daily administered with saline (5 μL to each nostril), while for the treatment group, saline was supplemented with 125 µg of AVP6/mL, which would result in a dose of approximately 50 μg/kg BW/day. […] When such signs were detected, the mice were studied by ERG and sacrificed within 1-2 days. […]

BDNF = assay: Mature BDNF levels in dissected hippocampi by Western blot; type: in vivo, mouse
Experimental: Method: AVP6 was administered intranasally at 50 μg/kg (5 μl/nostril) for 10 consecutive days. After sacrifice, changes in the levels of BDNF, a protein involved in long-term synaptic potentiation and memory consolidation, in the dissected hippocampi of mice were analyzed by Western blots.
The cerebral cortical tissues were homogenized in five volumes of RIPA lysis buffer (50 mM Tris-HCl pH 7.4, 150 mM NaCl, 1% NP-40, 0.25% sodium deoxycholate, 0.1% SDS, 2 mM EDTA, 1 mM PMSF), containing protease and […] inhibitor cocktails (Sigma, cat#4693132001 and 4906837001), using a Dounce homogenizer. The homogenates were kept on ice for 30 min and centrifuged at 13,000 g at 4° C. for 25 min. The supernatant was centrifuged again at 13,000 g for 15 min, the protein concentration in resulting lysates was measured, and 20 μg of protein from each sample was separated by SDS-PAGE on 4-20% precast polyacrylamide gel (Bio-Rad, 4561096). Western blot analyses were performed according to standard protocols using Anti-BDNF and α-tubulin (1:2000, mouse, DSHB) antibodies. Equal protein loading was confirmed by Ponceau S staining and normalized for tubulin immunoreactive band. Detected bands were quantified using ImageJ 1.50i software (National Institutes of Health, Bethesda, MD, USA).

Substance: AVP6: N-terminally acetylated Semax, a nootropic peptide having the amino acid sequence of MEHFPGP (SEQ ID NO:1) (Ac-MEHFPGP)
- mIPSC amplitude and frequency deficits [1]: did not recover deficits in mIPSC amplitude and frequency; also recorded: did not increase frequencies or amplitudes of mIPSC; also recorded: does not increase
- behaviour in Novel Object Recognition test after single dose [2]: did not improve behaviour
- spatial memory (alternation between arms), Y-Maze ([3]; Hgsnat^P304L mice at 4 months): a significant difference between saline-treated and peptide-treated mice was observed only, when we pooled the data for both sexes together; also recorded: rescues deficits in spatial and short-term memory; also recorded: show the rescue of all above deficits
- spatial memory (percent of alternation between arms), Y-Maze ([3]; Hgsnat^P304L mice at 6 months): demonstrated alternation similar to that of the WT mice; also recorded: partially rescues deficits in spatial and short-term memory; also recorded: show rescue of all above deficits
- mature BDNF levels (BDNF; acute (24 h) intranasal administration, MPSIIIC mice): significantly increased
- mature BDNF levels in hippocampus (BDNF; intranasal 50 μg/kg daily for 10 days, 4-month-old Hgsnat-Geo mice): significantly increased; also recorded: increases BDNF levels; also recorded: partially restored levels; also recorded: partially rescued
